# Laboratory results as given in patent US6087346A, “Sigma receptor ligands and the use thereof” (Cambridge Neuroscience, Inc., priority 1996, dated 2000).
# Structures can show the parent of a compound that is named as a salt. Where two headings read alike, the source gives them in different places.
# Key:
# sigma-1 receptor [1] = target: T1, sigma-1 receptor (Cavia porcellus, UniProt Q60492); settings: pH 8
# Experimental: (§1) Non-specific binding was determined in the presence of 10 μM haloperiodol. For the standard equilibrium assay the mixtures were incubated for 4-5 hours at 37° C., quenched with 4 ml of ice cold incubation buffer and rapidly filtered over Whatman GF/B glass fiber filters, followed by three 4 ml rinses with additional ice cole incubation buffer.
# sigma-2 receptor = target: T2, sigma-2 receptor (Cavia porcellus, UniProt H0V073); experiment: Sigma-2 binding assay ([^3 H]DTG in the presence of (+)pentazocine); parameters: species or system guinea pig
# T2 construct: of guinea pig brain membranes in a total volume of 0.5 ml; from tissue; host or cells: guinea pig brain membranes
# T2 sequence (H0V073 1-176): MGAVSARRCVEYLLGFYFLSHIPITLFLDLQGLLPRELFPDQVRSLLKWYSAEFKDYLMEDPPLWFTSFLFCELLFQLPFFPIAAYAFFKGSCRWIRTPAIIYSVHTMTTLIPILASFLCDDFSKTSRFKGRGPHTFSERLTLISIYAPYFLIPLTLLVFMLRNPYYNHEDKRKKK
# Excerpt: Protocols of the Sigma-1 and Sigma-2 binding assays employed are as follows:
# [2] = target: sigma receptor (sigma-1 and sigma-2 sites); experiment: Sigma receptor binding assay ([^3 H]DTG, guinea pig brain membrane homogenates); settings: for IC50: Example 3 table, tested by the [^3 H]DTG assay of Example 2; for Ki: Table II, [^3 H]DTG 1.4 nM, guinea pig brain membranes, pH 7.4, 90 minutes room temperature, IC50 values indicated as Ki, read-out: Ki nM (± SEM)
# Experimental: Briefly, frozen whole guinea-pig brains (Biotrol, Indianapolis, Ind.) were homogenized in 10 volumes (w/v) of ice-cold 320 mM sucrose using a Brinkman® polytron. The homogenate was centrifuged at 1,000× g for 20 minutes at 4° C. The supernatant was centrifuged at 20,000× g for 20 minutes at 4° C. The resulting pellet was resuspended in 10 initial volumes of 50 mM Tris/HCI buffer at pH 7.4 and centrifuged at 20,000× g for 20 minutes at 4° C. The resulting pellet was resuspended in 5 initial volumes ice-cold 50 mM Tris/HCl (pH 7.4), and the final volume was adjusted to yield a protein concentration of 3 mg/mL.
# The protein concentration in the 1-ml final incubation volume was 800 μg/ml, corresponding to 32 mg of brain tissue (original wet weight) and to a tissue concentration within the linear range for specific binding.
# The volume of the assays may be changed, specifically halved, so long as the concentrations of the constituents remain the same. […] Incubations were terminated after 90 minutes at room temperature by addition of 4 ml of ice-cold 50 mM Tris/HCI (pH 7.4) and rapid filtration of the membrane suspension through Whatman® GF/B or Schieicher & Schuell #32 glass-fiber filters under vacuum, using a 48-well cell harvester (Brandel). The filters were washed 2 times with 4 mL of 50 mM Tris/HCI (pH 7.4). Each filter was suspended in 10 ml Cytoscint (ICI), and radioactivity was measured by liquid scintillation spectrometry at a counting efficiency of approximately 50%. IC50 values (indicated as Ki in Tables II below) were determined by non-linear regression analysis.
# sigma-1 receptor [3] = target: T1, sigma-1 receptor; experiment: biochemical
# Experimental: as §1
# sigma-1 site = sigma-1 site (Cavia porcellus, UniProt Q60492); settings: Hellewell and Bowen (1990); cited from earlier work
# Chain of sigma-1 site (Q60492 whole entry): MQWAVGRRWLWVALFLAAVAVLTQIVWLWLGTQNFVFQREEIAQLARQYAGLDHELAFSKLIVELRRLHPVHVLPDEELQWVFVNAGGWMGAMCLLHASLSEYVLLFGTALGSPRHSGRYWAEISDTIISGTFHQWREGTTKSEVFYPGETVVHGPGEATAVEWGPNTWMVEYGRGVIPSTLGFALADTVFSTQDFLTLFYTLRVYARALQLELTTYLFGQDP
# [4] = tested on: NMDA-induced toxicity and seizures; settings: in vivo; Pontecorvo et al.; cited from earlier work
# opiate receptors = settings: cited from earlier work
# PCP receptors = settings: cited from earlier work
# [5] = tested on: NMDA-type of glutamate receptors; settings: Rao et al.; cited from earlier work
# gerbils = settings: in vivo, Rao et al.; cited from earlier work
# sigma sites = settings: in words; cited from earlier work
# DA sites = settings: cited from earlier work
# T1 sequence (Q60492 whole entry): as above
Compound,IC50 (sigma-2 receptor; read-out: Sigma 2 IC50) [nM],Ki (sigma-1 receptor [3]) [nM],Ki [2] [nM],other results
CN(CCCCCc1ccccc1)CCc1ccccc1,4.98,–,–,Ki (sigma-1 receptor [1]): 0.25 nM; IC50 [2]: 1.3 nM
CNC(CCCCCc1ccccc1)CCCCCc1ccccc1,–,–,–,IC50 [2]: 2.97 nM
c1ccc(CCCCCNCCc2ccccc2)cc1,–,–,–,IC50 [2]: 3.66 nM
c1ccc(CCCCCN2CCCC2)cc1,69.7,0.76,–,IC50 [2]: 4.95 nM
CN(CCCCCc1cccc(C(F)(F)F)c1)CCc1ccccc1,3.57,0.59,–,–
CN(CCCCCc1ccccc1)CCc1cccc(C(F)(F)F)c1,14.4,1.74,–,–
CN(CCCCC(=O)c1cccc(C(F)(F)F)c1)CCc1ccccc1,1.27,0.71,–,–
CN(CCCCC(O)c1cccc(C(F)(F)F)c1)CCc1ccccc1 (centres unmarked),3.02,0.95,–,–
CN1CCN(CCCCCc2ccccc2)CC1,78.9,1.44,–,–
CN1CCC(CCCCCc2ccccc2)CC1,97.3,0.6,–,–
O=[N+]([O-])c1ccc(CCCCCN2CCCCC2)cc1,9.91,0.16,–,–
c1ccc2c(c1)C1CC2C(N2CCCCC2)C1 (centres unmarked),–,–,–,"Ki (sigma-1 receptor [1]): 0.13 nM; IC50 (sigma-2 receptor; read-out: Sigma 2 IC50, about 2 nM [^3 H]DTG with 200 nM (+)pentazocine, guinea pig brain membranes, pH 7.4, 30 minutes room temperature): 5.29 nM"
c1ccc(CCCCCN2CCCC(Cc3ccccc3)C2)cc1 (centres unmarked),4.17,0.07,–,–
c1ccc(CCCCCN2CCCCC2c2ccccc2)cc1 (centres unmarked),4.7,0.16,–,–
CN(CCCC=C(c1ccccc1)c1ccccc1)CCc1ccccc1,40.8,0.9,–,–
CN(CCCCC(c1ccccc1)c1ccccc1)CCc1ccccc1,31.5,–,–,–
C(CCCNCCc1ccccc1)=C(c1ccccc1)c1ccccc1,142,–,–,–
CCN(CC)CCCCC(c1ccccc1)c1ccccc1,51.2,1.42,–,–
CCN(CC)CCCCCc1ccccc1,88.5,6.01,–,–
c1ccc(Cc2cccc(CN3CCCCC3)c2)cc1,98.2,5.44,–,–
c1ccc(CCCCCN2CCCCC2Cc2ccccc2)cc1 (centres unmarked),10.4,0.36,–,–

Compound,IC50 (sigma-2 receptor; read-out: Sigma 2 IC50) [nM],Ki (sigma-1 receptor [3]) [nM],Ki [2] [nM],other results
CC(Cc1ccccc1)NCCCCCc1ccccc1 (centres unmarked),–,0.54,–,IC50 (sigma-2 receptor): 10.9 nM
CC(Cc1ccccc1)NCCCCc1ccccc1 (centres unmarked),–,7.38,–,IC50 (sigma-2 receptor): 47.5 nM
c1ccc(CNCCCN2CCN(c3ccccc3)CC2)cc1,101,1.96,–,–
CC1CCN(CCCCCc2ccccc2)CC1,7.1,0.08,–,–
CN1CCC(=CCCCCc2ccccc2)CC1,258,9.87,–,–
c1ccc(CCNCCCCC(c2ccccc2)c2ccccc2)cc1,100,0.68,–,–
CC1CCN(CCCC=C(c2ccccc2)c2ccccc2)CC1,25,–,–,–
CC1CCN(CCCCC(c2ccccc2)c2ccccc2)CC1,–,–,–,"Ki (sigma-1 receptor [1]): 0.1 nM; IC50 (sigma-2 receptor; about 2 nM [^3 H]DTG with 200 nM (+)pentazocine, guinea pig brain membranes, pH 7.4, 30 minutes room temperature, read-out: Sigma 2 IC50): 16.7 nM"
"CC(C)=CCN1CCC2(C)c3cc(O)ccc3CC1C2C (single isomer, unassigned; (+)) [(+)pentazocine]",–,–,–,affinity for the sigma-1 site compared to the sigma-2 site (sigma-1 site): nearly two orders of magnitude higher affinity for the sigma-1 site compared to the sigma-2 site
OC(CCCN1CCN(c2ncc(F)cn2)CC1)c1ccc(F)cc1 (centres unmarked) [BMY-14802],–,–,–,protective effects against NMDA-induced toxicity and seizures [4]: in vivo protective effects against NMDA-induced toxicity and seizures
"O=C(CCCCN1CCC(c2ccc(Cl)cc2)CC1)c1ccc(Cl)c(Cl)c1 [Compound 1, 1,2,4-Dichlorophenyl-5-[4-(4-chlorophenyl)-1-piperidino]pentanone Hydrochloride]",–,–,1.8,–
"COc1ccc(C(=O)CCCCN2CCC(c3ccccc3)CC2)cc1 [Compound 2, 1-(4-Methoxyphenyl)-5-(4-phenyl-l-piperidino)pentanone Hydrochloride]",–,–,0.8,–
"Clc1ccc(CCCCCN2CCCCC2)cc1 [Compound 3, N-[5-(4-Chlorophenyl)pentyl]piperidine Hydrochloride]",–,–,2,–
O=C(CCCCN1CCC(O)(c2ccc(Cl)cc2)CC1)c1ccc(F)cc1 [Compound 4],–,–,2.6,–
O=C(CCCCN1CCC(c2ccccc2)CC1)c1ccc(F)cc1 [Compound 5],–,–,0.8,–
O=C(CCCCN1CCC(c2ccccc2)CC1)c1ccccc1 [Compound 6],–,–,0.9,–
O=C(CCCCN1CCC(c2ccccc2)CC1)c1ccc(Cl)cc1 [Compound 7],–,–,0.5,–
O=C(CCCCN1CCC(c2ccccc2)CC1)c1cccc(Cl)c1 [Compound 8],–,–,1.1,–
COc1cccc(C(=O)CCCCN2CCC(c3ccccc3)CC2)c1 [Compound 9],–,–,1,–
O=C(CCCCN1CCC(c2ccc(Cl)cc2)CC1)c1ccc(Cl)cc1 [Compound 10],–,–,1.8,–
O=C(CCCCN1CC=C(c2ccc(Cl)cc2)CC1)c1ccc(Cl)cc1 [Compound 12],–,–,4.3,–

Compound,IC50 (sigma-2 receptor; read-out: Sigma 2 IC50) [nM],Ki (sigma-1 receptor [3]) [nM],Ki [2] [nM],other results
O=C(CCCCN1CC=C(c2ccc(F)cc2)CC1)c1ccc(Cl)cc1 [Compound 13],–,–,2,–
c1ccc(CCCCCN2CCC(c3ccccc3)CC2)cc1 [Compound 14],–,–,0.9,–
Clc1ccc(CCCCCN2CCC(c3ccccc3)CC2)cc1 [Compound 15],–,–,1.8,–
COc1ccc(CCCCCN2CCC(c3ccccc3)CC2)cc1 [Compound 16],–,–,1.2,–
O=C(CCCCN1CCCCC1)c1ccccc1 [Compound 17],–,–,25.2,–
O=C(CCCCN1CCCCC1)c1ccc(F)cc1 [Compound 18],–,–,6.7,–
O=C(CCCCN1CCCCC1)c1ccc(Cl)cc1 [Compound 19],–,–,1.2,–
O=C(CCCCN1CCCCC1)c1cccc(Cl)c1 [Compound 20],–,–,3.8,–
COc1ccc(C(=O)CCCCN2CCCCC2)cc1 [Compound 21],–,–,9.9,–
COc1cccc(C(=O)CCCCN2CCCCC2)c1 [Compound 22],–,–,20.7,–
c1ccc(CCCCCN2CCCCC2)cc1 [Compound 23],–,–,1.9,–
COc1ccc(CCCCCN2CCCCC2)cc1 [Compound 24],–,–,4.7,–
COc1cccc(CCCCCN2CCCCC2)c1 [Compound 25],–,–,10.7,–
"C=CCN1CCC2(C)c3cc(O)ccc3CC1C2C (centres unmarked) [NANM, N-allyl normetazocine]",–,–,–,affinity at typical opiate receptors (opiate receptors): low affinity; affinity at PCP receptors (PCP receptors): significant affinity
CCN(CC)CCOC(=O)C1(c2ccccc2)CCCC1 [caramiphen],–,–,–,protective effects against NMDA-induced toxicity and seizures [4]: in vivo protective effects against NMDA-induced toxicity and seizures
c1cc2c(cc1CCCCCN1CCCCC1)OCO2 [drawing 25],–,–,–,IC50 [2]: 2.25 nM
c1cc2c(cc1CCCCCN1CCCCC1)OCO2 [drawing 38],63.4,0.32,–,–
OCCN1CCN(CCCN2c3ccccc3C=Cc3ccccc32)CC1 [opipramol],–,–,–,biochemical effects on NMDA-type glutamate receptors [5]: biochemical effects consistent with modulation of the NMDA-type of glutamate receptors; protection against ischemia (gerbils): protect against ischemia in gerbils; affinity for sigma sites (sigma sites): potent sigma receptor ligand
O=C(CCCN1CCC2(CC1)C(=O)NCN2c1ccccc1)c1ccc(F)cc1 [spiperone],–,–,–,affinity for DA sites (DA sites): high affinity for DA sites; affinity for sigma sites (sigma sites): essentially no affinity for sigma sites
